Source: patent US8404708B2, “Dual NK1/NK3 receptor antagonists” (Hoffmann-La Roche Inc., priority 2004, dated 2013)

Tests used:
human NK1 receptor = human NK1 receptor (Homo sapiens, UniProt P25103); test: NK1 receptor binding, [3H]substance P displacement, CHO cell membranes; settings: first value of the cell NK1/NK3; read-out: pKi NK1 (converted)
[1] = target: T1, Recombinant human NK3 (hNK3) receptor (Homo sapiens, UniProt P29371); test: NK3 receptor binding, [3H]SR142801 displacement, membrane preparations; settings: second value of the cell NK1/NK3; read-out: pKi NK3 (converted)
T1 construct: expressed in transfected cells
T1 sequence (P29371 1-465): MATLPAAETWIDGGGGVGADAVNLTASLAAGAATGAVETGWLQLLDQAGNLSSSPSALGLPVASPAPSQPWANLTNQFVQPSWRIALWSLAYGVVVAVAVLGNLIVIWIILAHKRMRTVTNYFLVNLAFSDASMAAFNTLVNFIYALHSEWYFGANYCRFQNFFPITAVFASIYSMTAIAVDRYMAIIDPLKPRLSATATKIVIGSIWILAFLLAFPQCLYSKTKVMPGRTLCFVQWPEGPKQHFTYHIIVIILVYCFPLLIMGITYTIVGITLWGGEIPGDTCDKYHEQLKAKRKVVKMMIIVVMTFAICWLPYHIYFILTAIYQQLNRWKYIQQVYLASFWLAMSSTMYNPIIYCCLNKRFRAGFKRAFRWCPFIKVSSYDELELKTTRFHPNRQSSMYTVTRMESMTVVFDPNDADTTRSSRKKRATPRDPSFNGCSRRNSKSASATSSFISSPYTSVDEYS
Procedure, shortened: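 Room-temperature, 90-min filtration binding assay using about 2.5 μg recombinant receptor membranes per well; separation on polyethyleneimine-treated glass-fibre (GF/C) filters and liquid scintillation read-out, with 10 μM SB222200 for nonspecific binding.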

human NK1 receptor, sequence (P25103 whole entry): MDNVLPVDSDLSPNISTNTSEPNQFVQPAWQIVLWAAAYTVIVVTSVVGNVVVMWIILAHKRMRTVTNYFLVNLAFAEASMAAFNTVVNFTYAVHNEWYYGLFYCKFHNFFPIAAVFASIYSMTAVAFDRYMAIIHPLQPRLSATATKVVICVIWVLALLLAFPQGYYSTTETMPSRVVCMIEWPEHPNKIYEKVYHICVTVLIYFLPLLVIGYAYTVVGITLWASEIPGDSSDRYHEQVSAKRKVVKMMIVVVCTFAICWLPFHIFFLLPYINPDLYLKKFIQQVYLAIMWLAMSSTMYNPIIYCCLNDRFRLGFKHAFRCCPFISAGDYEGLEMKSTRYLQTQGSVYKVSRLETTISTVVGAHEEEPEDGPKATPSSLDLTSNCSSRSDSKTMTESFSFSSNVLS

Row | Compound | Ki (human NK1 receptor) [nM] | Ki [1] [nM]
1 | Cc1cc(F)ccc1-c1cc(N2C[C@@H](O)C[C@@H]2CO)ncc1N(C)C(=O)C(C)(C)c1cc(C(F)(F)F)cc(C(F)(F)F)c1 [Example 259, (2R,4S)-2-(3,5-Bis-trifluoromethyl-phenyl)-N-[4-(4-fluoro-2-methyl-phenyl)-6-(4-hydroxy-2-hydroxymethyl-pyrrolidin-1-yl)-pyridin-3-yl]-N-methyl-isobutyramide] | 1.66 | 15.1
2 | Cc1ccccc1-c1cc(N2C[C@@H](O)C[C@@H]2CO)ncc1N(C)C(=O)C(C)(C)c1cc(C(F)(F)F)cc(C(F)(F)F)c1 [Example 260, (2R,4S)-2-(3,5-Bis-trifluoromethyl-phenyl)-N-[6-(4-hydroxy-2-hydroxymethyl-pyrrolidin-1-yl)-4-o-tolyl-pyridin-3-yl]-N-methyl-isobutyramide] | 1.41 | 17.8
3 | Cc1ccccc1-c1cc(N2CC[C@H](O)[C@H]2CO)ncc1N(C)C(=O)C(C)(C)c1cc(C(F)(F)F)cc(C(F)(F)F)c1 [Example 261, (2R,3S)-2-(3,5-Bis-trifluoromethyl-phenyl)-N-[6-(3-hydroxy-2-hydroxymethyl-pyrrolidin-1-yl)-4-o-tolyl-pyridin-3-yl]-N-methyl-isobutyramide] | 1.29 | 0.912
4 | CN(C(=O)C(C)(C)c1cc(C(F)(F)F)cc(C(F)(F)F)c1)c1cnc(N2CC[C@H](O)[C@H]2CO)cc1-c1ccccc1C(F)(F)F [Example 262, (2R,3S)-2-(3,5-Bis-trifluoromethyl-phenyl)-N-[6-(3-hydroxy-2-hydroxymethyl-pyrrolidin-1-yl)-4-(2-trifluoromethyl-phenyl)-pyridin-3-yl]-N-methyl-isobutyramide] | 7.94 | 9.77
5 | COc1ccccc1-c1cc(N2CC[C@H](O)[C@H]2CO)ncc1N(C)C(=O)C(C)(C)c1cc(C(F)(F)F)cc(C(F)(F)F)c1 [Example 263, (2R,3S)-2-(3,5-Bis-trifluoromethyl-phenyl)-N-[6-(3-hydroxy-2-hydroxymethyl-pyrrolidin-1-yl)-4-(2-methoxy-phenyl)-pyridin-3-yl]-N-methyl-isobutyramide] | 1.02 | 1.35
6 | CN(C(=O)C(C)(C)c1cc(C(F)(F)F)cc(C(F)(F)F)c1)c1cnc(N2CC[C@H](O)[C@H]2CO)cc1-c1ccccc1F [Example 264, (2R,3S)-2-(3,5-Bis-trifluoromethyl-phenyl)-N-[4-(2-fluoro-phenyl)-6-(3-hydroxy-2-hydroxymethyl-pyrrolidin-1-yl)-pyridin-3-yl]-N-methyl-isobutyramide] | 1.48 | 2.14
7 | CN(C(=O)C(C)(C)c1cc(C(F)(F)F)cc(C(F)(F)F)c1)c1cnc(N2CC[C@H](O)[C@H]2CO)cc1-c1ccccc1 [Example 265, (2R,3S)-2-(3,5-Bis-trifluoromethyl-phenyl)-N-[6-(3-hydroxy-2-hydroxymethyl-pyrrolidin-1-yl)-4-phenyl-pyridin-3-yl]-N-methyl-isobutyramide] | 1.45 | 4.9
8 | CN(C(=O)C(C)(C)c1cc(C(F)(F)F)cc(C(F)(F)F)c1)c1cnc(N2CC[C@H](O)[C@H]2CO)cc1-c1ccc(F)cc1 [Example 266, (2R,3S)-2-(3,5-Bis-trifluoromethyl-phenyl)-N-[4-(4-fluoro-phenyl)-6-(3-hydroxy-2-hydroxymethyl-pyrrolidin-1-yl)-pyridin-3-yl]-N-methyl-isobutyramide] | 1.2 | 3.8
9 | Cc1ccc(-c2cc(N3CC[C@H](O)[C@H]3CO)ncc2N(C)C(=O)C(C)(C)c2cc(C(F)(F)F)cc(C(F)(F)F)c2)cc1 [Example 267, (2R,3S)-2-(3,5-Bis-trifluoromethyl-phenyl)-N-[6-(3-hydroxy-2-hydroxymethyl-pyrrolidin-1-yl)-4-p-tolyl-pyridin-3-yl]-N-methyl-isobutyramide] | 3.63 | 28.8
10 | CN(C(=O)C(C)(C)c1cc(C(F)(F)F)cc(C(F)(F)F)c1)c1cnc(N2CC[C@H](O)[C@H]2CO)cc1-c1ccc(Cl)c(Cl)c1 [Example 268, (2R,3S)-2-(3,5-Bis-trifluoromethyl-phenyl)-N-[4-(3,4-dichloro-phenyl)-6-(3-hydroxy-2-hydroxymethyl-pyrrolidin-1-yl)-pyridin-3-yl]-N-methyl-isobutyramide] | 2.29 | 2.4
11 | CN(C(=O)C(C)(C)c1cc(C(F)(F)F)cc(C(F)(F)F)c1)c1cnc(N2CC[C@H](O)[C@H]2CO)cc1-c1cccc(Cl)c1 [Example 269, (2R,3S)-2-(3,5-Bis-trifluoromethyl-phenyl)-N-[4-(3-chloro-phenyl)-6-(3-hydroxy-2-hydroxymethyl-pyrrolidin-1-yl)-pyridin-3-yl]-N-methyl-isobutyramide] | 1.86 | 3.55
12 | CN(C(=O)C(C)(C)c1cc(C(F)(F)F)cc(C(F)(F)F)c1)c1cnc(N2CC[C@H](O)[C@H]2CO)cc1-c1cc(Cl)ccc1Cl [Example 270, (2R,3S)-2-(3,5-Bis-trifluoromethyl-phenyl)-N-[4-(2,5-dichloro-phenyl)-6-(3-hydroxy-2-hydroxymethyl-pyrrolidin-1-yl)-pyridin-3-yl]-N-methyl-isobutyramide] | 2.63 | 2.19
13 | CN(C(=O)C(C)(C)c1cc(C(F)(F)F)cc(C(F)(F)F)c1)c1cnc(N2CC[C@H](O)[C@H]2CO)cc1-c1cccc(Cl)c1Cl [Example 271, (2R,3S)-2-(3,5-Bis-trifluoromethyl-phenyl)-N-[4-(2,3-dichloro-phenyl)-6-(3-hydroxy-2-hydroxymethyl-pyrrolidin-1-yl)-pyridin-3-yl]-N-methyl-isobutyramide] | 3.02 | 1.38
14 | CN(C(=O)C(C)(C)c1cc(C(F)(F)F)cc(C(F)(F)F)c1)c1cnc(N2CC[C@H](O)[C@H]2CO)cc1-c1ccc(F)cc1Cl [Example 272, (2R,3S)-2-(3,5-Bis-trifluoromethyl-phenyl)-N-[4-(2-chloro-4-fluoro-phenyl)-6-(3-hydroxy-2-hydroxymethyl-pyrrolidin-1-yl)-pyridin-3-yl]-N-methyl-isobutyramide] | 2 | 1.1
15 | CN(C(=O)C(C)(C)c1cc(C(F)(F)F)cc(C(F)(F)F)c1)c1cnc(N2CC[C@H](O)[C@H]2CO)cc1-c1ccc(F)cc1C=O [Example 273, (2R,3S)-2-(3,5-Bis-trifluoromethyl-phenyl)-N-[4-(4-fluoro-2-formyl-phenyl)-6-(3-hydroxy-2-hydroxymethyl-pyrrolidin-1-yl)-pyridin-3-yl]-N-methyl-isobutyramide] | 1.45 | 1.55
16 | CN(C(=O)C(C)(C)c1cc(C(F)(F)F)cc(C(F)(F)F)c1)c1cnc(N2CC[C@H](O)[C@H]2CO)cc1-c1ccc(F)cc1CO [Example 274, (2R,3S)-2-(3,5-Bis-trifluoromethyl-phenyl)-N-[4-(4-fluoro-2-hydroxymethyl-phenyl)-6-(3-hydroxy-2-hydroxymethyl-pyrrolidin-1-yl)-pyridin-3-yl]-N-methyl-isobutyramide] | 1.29 | 1.51
17 | Cc1c(F)cccc1-c1cc(N2CC[C@H](O)[C@H]2CO)ncc1N(C)C(=O)C(C)(C)c1cc(C(F)(F)F)cc(C(F)(F)F)c1 [Example 275, (2R,3S)-2-(3,5-Bis-trifluoromethyl-phenyl)-N-[4-(3-fluoro-2-methyl-phenyl)-6-(3-hydroxy-2-hydroxymethyl-pyrrolidin-1-yl)-pyridin-3-yl]-N-methyl-isobutyramide] | 1.48 | 0.575
18 | Cc1ccc(F)cc1-c1cc(N2CC[C@H](O)[C@H]2CO)ncc1N(C)C(=O)C(C)(C)c1cc(C(F)(F)F)cc(C(F)(F)F)c1 [Example 276, (2R,3S)-2-(3,5-Bis-trifluoromethyl-phenyl)-N-[4-(5-fluoro-2-methyl-phenyl)-6-(3-hydroxy-2-hydroxymethyl-pyrrolidin-1-yl)-pyridin-3-yl]-N-methyl-isobutyramide] | 1.45 | 1.38
19 | CN(C(=O)C(C)(C)c1cc(C(F)(F)F)cc(C(F)(F)F)c1)c1cnc(N2CC[C@H](O)[C@H]2CO)cc1-c1cc(F)ccc1F [Example 277, (2R,3S)-2-(3,5-Bis-trifluoromethyl-phenyl)-N-[4-(2,5-difluoro-phenyl)-6-(3-hydroxy-2-hydroxymethyl-pyrrolidin-1-yl)-pyridin-3-yl]-N-methyl-isobutyramide] | 1.48 | 2.45
20 | Cc1ncccc1-c1cc(N2CC[C@H](O)[C@H]2CO)ncc1N(C)C(=O)C(C)(C)c1cc(C(F)(F)F)cc(C(F)(F)F)c1 [Example 278, (2R,3S)-2-(3,5-Bis-trifluoromethyl-phenyl)-N-[6′-(3-hydroxy-2-hydroxymethyl-pyrrolidin-1-yl)-2-methyl-[3,4′]bipyridinyl-3′-yl]-N-methyl-isobutyramide] | 0.813 | 2.69
21 | Cc1ccccc1-c1cc(N2CCC[C@H]2CO)ncc1N(C)C(=O)C(C)(C)c1cc(C(F)(F)F)cc(C(F)(F)F)c1 [Example 279, (S)-2-(3,5-Bis-trifluoromethyl-phenyl)-N-[6-(2-hydroxymethyl-pyrrolidin-1-yl)-4-o-tolyl-pyridin-3-yl]-N-methyl-isobutyramide] | 2.82 | 1.17
